Data: patent publication US20220220103A1, “CYCLIN-DEPENDENT KINASE INHIBITORS” (SPV THERAPEUTICS INC., priority 2018, published 2022)

Assays:
CDK6-CYCLIND3 = CDK6-CYCLIND3 (Homo sapiens, UniProt Q00534); test: Microfluidic LabChip inhibition assay, CDK6-CYCLIND3; type: biochemical; details: Table 2; ATP 300 μM, 25° C.; read-out: CDK6 IC50
Description: (§1) The reaction was terminated by the addition of EDTA. The plates were analyzed using a Caliper LabChip 3000.
(§2) Additional inhibition assays were performed as described above.

CDK4-CYCLIND1 = CDK4-CYCLIND1 (Homo sapiens, UniProt P11802); test: Microfluidic LabChip inhibition assay, CDK4-CYCLIND1; type: biochemical; details: Table 2; ATP 200 μM, 25° C.; read-out: CDK4 IC50
Sequence of CDK4-CYCLIND1 (P11802 whole entry): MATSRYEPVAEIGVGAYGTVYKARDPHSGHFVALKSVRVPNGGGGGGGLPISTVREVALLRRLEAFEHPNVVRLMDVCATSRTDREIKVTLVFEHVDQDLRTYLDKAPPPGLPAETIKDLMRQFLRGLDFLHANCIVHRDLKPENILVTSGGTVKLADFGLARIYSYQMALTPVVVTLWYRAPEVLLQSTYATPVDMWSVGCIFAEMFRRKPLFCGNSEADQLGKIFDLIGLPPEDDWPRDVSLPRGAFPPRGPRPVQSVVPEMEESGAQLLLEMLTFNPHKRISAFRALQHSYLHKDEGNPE
Sequence of CDK4-CYCLIND1 (P24385 whole entry partner): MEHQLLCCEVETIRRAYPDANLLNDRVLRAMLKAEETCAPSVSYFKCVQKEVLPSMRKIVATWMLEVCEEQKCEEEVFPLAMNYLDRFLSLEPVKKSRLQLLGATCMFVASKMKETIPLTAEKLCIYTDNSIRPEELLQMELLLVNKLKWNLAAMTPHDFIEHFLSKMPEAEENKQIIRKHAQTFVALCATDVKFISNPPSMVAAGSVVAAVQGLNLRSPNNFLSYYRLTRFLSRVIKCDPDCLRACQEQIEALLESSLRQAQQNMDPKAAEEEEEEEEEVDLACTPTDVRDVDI
Description: as §1, §2

Sequence of CDK6-CYCLIND3 (Q00534 whole entry): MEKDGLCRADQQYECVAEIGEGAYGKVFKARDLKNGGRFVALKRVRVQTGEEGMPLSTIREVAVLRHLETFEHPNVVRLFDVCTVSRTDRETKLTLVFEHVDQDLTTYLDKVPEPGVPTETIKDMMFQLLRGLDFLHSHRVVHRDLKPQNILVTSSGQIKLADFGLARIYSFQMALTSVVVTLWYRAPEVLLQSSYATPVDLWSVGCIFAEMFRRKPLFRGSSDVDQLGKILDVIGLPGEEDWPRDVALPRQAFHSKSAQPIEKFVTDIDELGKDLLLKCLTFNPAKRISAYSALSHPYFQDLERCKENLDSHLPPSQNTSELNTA
Sequence of CDK6-CYCLIND3 (P30281 whole entry partner): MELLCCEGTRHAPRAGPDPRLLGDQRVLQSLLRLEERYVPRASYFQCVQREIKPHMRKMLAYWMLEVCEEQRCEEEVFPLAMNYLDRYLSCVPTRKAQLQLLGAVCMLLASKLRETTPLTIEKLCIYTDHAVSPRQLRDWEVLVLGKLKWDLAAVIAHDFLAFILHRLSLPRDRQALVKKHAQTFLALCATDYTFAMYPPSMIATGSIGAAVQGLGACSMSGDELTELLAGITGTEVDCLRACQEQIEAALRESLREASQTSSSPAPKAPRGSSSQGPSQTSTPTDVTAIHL

Structure (SMILES) | IC50 (CDK6-CYCLIND3) [nM] | IC50 (CDK4-CYCLIND1) [nM]
CN1CCN(c2ccc(Nc3ncc4cc(C#N)c(=O)n(C56CC(C5)C6)c4n3)cc2)CC1 [Compound B1, 8-(bicyclo[1.1.1]pentan-1-yl)-2-((4-(4-methylpiperazin-1-yl)phenyl)amino)-7-oxo-7,8-dihydropyrido[2,3-d]pyrimidine-6-carbonitrile] | 41.5 | 31.1
N#Cc1cc2cnc(Nc3ccc(N4CCNCC4)cn3)nc2n(C23CC(C2)C3)c1=O [Compound B2, 8-(bicyclo[1.1.1]pentan-1-yl)-7-oxo-2-((5-(piperazin-1-yl)pyridin-2-yl)amino)-7,8-dihydropyrido[2,3-d]pyrimidine-6-carbonitrile] | 253 | 307
CN1CCN(c2ccc(Nc3ncc4cc(C#N)c(=O)n(C56CC(C5)C6)c4n3)nc2)CC1 [Compound B3, 8-(bicyclo[1.1.1]pentan-1-yl)-2-((5-(4-methylpiperazin-1-yl)pyridin-2-yl)amino)-7-oxo-7,8-dihydropyrido[2,3-d]pyrimidine-6-carbonitrile] | 432 | 504
CC(C)N1CCN(c2ccc(Nc3ncc4cc(C#N)c(=O)n(C56CC(C5)C6)c4n3)nc2)CC1 [Compound B4, 8-(bicyclo[1.1.1]pentan-1-yl)-2-((5-(4-isopropylpiperazin-1-yl)pyridin-2-yl)amino)-7-oxo-7,8-dihydropyrido[2,3-d]pyrimidine-6-carbonitrile] | 154 | 213
CN1CCN(c2cnc(Nc3ncc4cc(C#N)c(=O)n(C5CCCC5)c4n3)cc2C(F)(F)F)CC1 [Compound B5, 8-cyclopentyl-2-((5-(4-methylpiperazin-1-yl)-4-(trifluoromethyl)pyridin-2-yl)amino)-7-oxo-7,8-dihydropyrido[2,3-d]pyrimidine-6-carbonitrile] | ≥ 30000 | 25700
CN(C)CCOc1ccc(Nc2ncc3cc(C#N)c(=O)n(C4CCCC4)c3n2)nc1 [Compound B6, 8-cyclopentyl-2-((5-(2-(dimethylamino)ethoxy)pyridin-2-yl)amino)-7-oxo-7,8-dihydropyrido[2,3-d]pyrimidine-6-carbonitrile] | 120 | 97.8
N#Cc1cc2cnc(Nc3ccc(OCCN4CCCC4)cn3)nc2n(C2CCCC2)c1=O [Compound B7, 8-cyclopentyl-7-oxo-2-((5-(2-(pyrrolidin-1-yl)ethoxy)pyridin-2-yl)amino)-7,8-dihydropyrido[2,3-d]pyrimidine-6-carbonitrile] | 103 | 101
N#Cc1cc2cnc(Nc3ccc(OCCN4CCCCC4)nc3)nc2n(C2CCCC2)c1=O [Compound B8, 8-cyclopentyl-7-oxo-2-((6-(2-(piperidin-1-yl)ethoxy)pyridin-3-yl)amino)-7,8-dihydropyrido[2,3-d]pyrimidine-6-carbonitrile] | 55.3 | 29.1
N#Cc1cc2cnc(Nc3ccc(C4=CCNCC4)cn3)nc2n(C2CCCC2)c1=O [Compound B9, 8-cyclopentyl-7-oxo-2-((1′,2′,3′,6′-tetrahydro-[3,4′-bipyridin]-6-yl)amino)-7,8-dihydropyrido[2,3-d]pyrimidine-6-carbonitrile] | 37.2 | 33.8
N#Cc1cc2cnc(Nc3cc(C(F)(F)F)c(N4CCNCC4)cn3)nc2n(C2CCCC2)c1=O [Compound B10, 8-cyclopentyl-7-oxo-2-((5-(piperazin-1-yl)-4-(trifluoromethyl)pyridin-2-yl)amino)-7,8-dihydropyrido[2,3-d]pyrimidine-6-carbonitrile] | 9240 | 2820
CN(C)CCOc1ccc(Nc2ncc3cc(C#N)c(=O)n(C4CCCC4)c3n2)cn1 [Compound B11, 8-cyclopentyl-2-((6-(2-(dimethylamino)ethoxy)pyridin-3-yl)amino)-7-oxo-7,8-dihydropyrido[2,3-d]pyrimidine-6-carbonitrile] | 133 | 37.6
N#Cc1cc2cnc(Nc3ccc(OCCN4CCCCC4)cn3)nc2n(C2CCCC2)c1=O [Compound B12, 8-cyclopentyl-7-oxo-2-((5-(2-(piperidin-1-yl)ethoxy)pyridin-2-yl)amino)-7,8-dihydropyrido[2,3-d]pyrimidine-6-carbonitrile] | 61.9 | 39.3
N#Cc1cc2cnc(Nc3ccc(N4CCN5CCC4CC5)cn3)nc2n(C2CCCC2)c1=O [Compound B13, 2-((5-(1,4-diazabicyclo[3.2.2]nonan-4-yl)pyridin-2-yl)amino)-8-cyclopentyl-7-oxo-7,8-dihydropyrido[2,3-d]pyrimidine-6-carbonitrile] | 798 | 571
N#Cc1cc2cnc(Nc3ccc(N4CCNCC4)c(F)c3)nc2n(C2CCCC2)c1=O [Compound B14, 8-cyclopentyl-2-((3-fluoro-4-(piperazin-1-yl)phenyl)amino)-7-oxo-7,8-dihydropyrido[2,3-d]pyrimidine-6-carbonitrile] | 7.27 | 2.03
CN(C)CCOc1ccc(Nc2ncc3cc(C#N)c(=O)n(C4CCCC4)c3n2)cc1 [Compound B15, 8-cyclopentyl-2-((4-(2-(dimethylamino)ethoxy)phenyl)amino)-7-oxo-7,8-dihydropyrido[2,3-d]pyrimidine-6-carbonitrile] | 14.3 | 4.62
CC(C)N1CCN(c2ccc(Nc3ncc4cc(C#N)c(=O)n(C5CCCC5)c4n3)cc2)CC1 [Compound B16, 8-cyclopentyl-2-((4-(4-isopropylpiperazin-1-yl)phenyl)amino)-7-oxo-7,8-dihydropyrido[2,3-d]pyrimidine-6-carbonitrile] | 6.32 | 1.8
CN1CCN(c2ccc(Nc3ncc4cc(C#N)c(=O)n(C5CCCC5)c4n3)cc2F)CC1 [Compound B17, 8-cyclopentyl-2-((3-fluoro-4-(4-methylpiperazin-1-yl)phenyl)amino)-7-oxo-7,8-dihydropyrido[2,3-d]pyrimidine-6-carbonitrile] | 7.71 | 1.78
CC(C)N1CCN(c2ccc(Nc3ncc4cc(C#N)c(=O)n(C5CCCC5)c4n3)cc2F)CC1 [Compound B18, 8-cyclopentyl-2-((3-fluoro-4-(4-isopropylpiperazin-1-yl)phenyl)amino)-7-oxo-7,8-dihydropyrido[2,3-d]pyrimidine-6-carbonitrile] | 10.4 | 2.31
CC(C)N1CCN(c2ccc(Nc3ncc4cc(C#N)c(=O)n(C5CCCC5)c4n3)c(F)c2)CC1 [Compound B19, 8-cyclopentyl-2-((2-fluoro-4-(4-isopropylpiperazin-1-yl)phenyl)amino)-7-oxo-7,8-dihydropyrido[2,3-d]pyrimidine-6-carbonitrile] | 89.8 | 69.1
N#Cc1cc2cnc(N3CCC(N4CCOCC4)CC3)nc2n(C2CCCC2)c1=O [Compound B20, 8-cyclopentyl-2-(4-morpholinopiperidin-1-yl)-7-oxo-7,8-dihydropyrido[2,3-d]pyrimidine-6-carbonitrile] | ≥ 30000 | 15700
N#Cc1ccc(N2CCN(c3ncc4cc(C#N)c(=O)n(C5CCCC5)c4n3)CC2)cc1 [Compound B21, 2-(4-(4-cyanophenyl)piperazin-1-yl)-8-cyclopentyl-7-oxo-7,8-dihydropyrido[2,3-d]pyrimidine-6-carbonitrile] | > 30000 | > 30000
N#Cc1cc2cnc(Nc3ccc(N4CCNCC4)nc3)nc2n(C2CCCC2)c1=O [Compound B22, 8-cyclopentyl-7-oxo-2-((6-(piperazin-1-yl)pyridin-3-yl)amino)-7,8-dihydropyrido[2,3-d]pyrimidine-6-carbonitrile] | 19.7 | 6.93
CN1CCN(c2ccc(Nc3ncc4cc(C#N)c(=O)n(C5CCCC5)c4n3)cn2)CC1 [Compound B23, 8-cyclopentyl-2-((6-(4-methylpiperazin-1-yl)pyridin-3-yl)amino)-7-oxo-7,8-dihydropyrido[2,3-d]pyrimidine-6-carbonitrile] | 33.2 | 11.5
N#Cc1cc2cnc(Nc3ccc(N4CCOCC4)c(F)c3)nc2n(C2CCCC2)c1=O [Compound B24, 8-cyclopentyl-2-((3-fluoro-4-morpholinophenyl)amino)-7-oxo-7,8-dihydropyrido[2,3-d]pyrimidine-6-carbonitrile] | 35.8 | 11.1
CC(C)N1CCN(c2ccc(Nc3ncc4cc(C#N)c(=O)n(C5CCCC5)c4n3)nc2)CC1 [Compound B25, 8-cyclopentyl-2-((5-(4-isopropylpiperazin-1-yl)pyridin-2-yl)amino)-7-oxo-7,8-dihydropyrido[2,3-d]pyrimidine-6-carbonitrile] | 19 | 7.51
N#Cc1cc2cnc(Nc3ccc(N4CCNCC4)cc3F)nc2n(C2CCCC2)c1=O [Compound B26, 8-cyclopentyl-2-((2-fluoro-4-(piperazin-1-yl)phenyl)amino)-7-oxo-7,8-dihydropyrido[2,3-d]pyrimidine-6-carbonitrile] | 36.8 | 15.4
CN1CCN(c2ccc(Nc3ncc4cc(C#N)c(=O)n(C5CCCC5)c4n3)c(F)c2)CC1 [Compound B27, 8-cyclopentyl-2-((2-fluoro-4-(4-methylpiperazin-1-yl)phenyl)amino)-7-oxo-7,8-dihydropyrido[2,3-d]pyrimidine-6-carbonitrile] | 1400 | 457
N#Cc1cc2cnc(Nc3ccc(OCCN4CCCC4)nc3)nc2n(C2CCCC2)c1=O [Compound B28, 8-cyclopentyl-7-oxo-2-((6-(2-(pyrrolidin-1-yl)ethoxy)pyridin-3-yl)amino)-7,8-dihydropyrido[2,3-d]pyrimidine-6-carbonitrile] | 120 | 45
CC(C)N1CCN(c2cnc(Nc3ncc4cc(C#N)c(=O)n(C5CCCC5)c4n3)cc2C(F)(F)F)CC1 [Compound B29, 8-cyclopentyl-2-((5-(4-isopropylpiperazin-1-yl)-4-(trifluoromethyl)pyridin-2-yl)amino)-7-oxo-7,8-dihydropyrido[2,3-d]pyrimidine-6-carbonitrile] | > 30000 | > 30000
